Test results as given in US4260745A, “3-Halo cephalosporins” (Eli Lilly and Company, priority 1979, dated 1981).
≈ marks a conversion by molar mass, not a printed value. Where two headings read alike, the source gives them in different places.

Legend:
Bacillus subtilis = assay: standard disc-plate method, zone of inhibition; type: cell-based; settings: Table IV, read-out: Zone of Inhibition (diameter in mm); for zone of inhibition at 10 µg/mL: 0.01 mg./ml.; for zone of inhibition at 100 µg/mL: 0.1 mg./ml.; for zone of inhibition at 1000 µg/mL: 1.0 mg./ml.
Text: (§1) The in vitro antimicrobial activity of the 3-halo cephalosporins is illustrated by the data in the following tables. Table I contains the antimicrobial activity for 7-[2-(2-thienyl)acetamido]-3-chloro-3-cephem-4-carboxylic acid obtained in the standard Disc-plate method. The numerical values are the diameter in millimeters of the zones of inhibition observed with the named organisms.
(§2) In Table IV below, the in vitro antimicrobial activity of 7-[2-(2-thienyl)acetamido]-3-bromo-3-cephem-4-carboxylic acid is presented for several illustrative microorganisms. The data presented were obtained in the standard disc-plate method with the numerical values recording the diameter in millimeters of the zones of inhibition observed with the named microorganisms.

Escherichia coli [1] = assay: standard disc-plate method, zone of inhibition; type: cell-based; settings: Table IV, read-out: Zone of Inhibition (diameter in mm); for zone of inhibition at 100 µg/mL: 0.1 mg./ml.; for zone of inhibition at 1000 µg/mL: 1.0 mg./ml.
Text: as §1, §2

Sarcina lutea = assay: standard disc-plate method, zone of inhibition; type: cell-based; settings: Micrococcus luteus, Table IV, read-out: Zone of Inhibition (diameter in mm)
Text: as §1, §2

Staphylococcus aureus = assay: standard disc-plate method, zone of inhibition; type: cell-based; settings: Table IV, read-out: Zone of Inhibition (diameter in mm)
Text: as §1, §2

[2] = test system: Pseudomonas solanacearcum; assay: standard disc-plate method, zone of inhibition; type: cell-based; design: key to Zone of Inhibition (diameter in mm): --: A dash indicates no observed zone of inhibition; hazy zone; settings: Table IV
Text: as §1, §2

Salmonella gallinarum = assay: standard disc-plate method, zone of inhibition; type: cell-based; design: key to Zone of Inhibition (diameter in mm): --: A dash indicates no observed zone of inhibition; hazy zone; settings: Table IV
Text: as §1, §2

Candida albicans = assay: standard disc-plate method, zone of inhibition; type: cell-based; design: key: --: A dash indicates no observed zone of inhibition; hazy zone; settings: Table IV
Text: as §2

Neurospora sp. = assay: standard disc-plate method, zone of inhibition; type: cell-based; design: key: --: A dash indicates no observed zone of inhibition; hazy zone; settings: Table IV
Text: as §2

Pseudomonas aeruginosa [3] = assay: standard disc-plate method, zone of inhibition; type: cell-based; design: key: --: A dash indicates no observed zone of inhibition; hazy zone; settings: Table IV
Text: as §2

[4] = test system: Saccharomyces pastorianus; assay: standard disc-plate method, zone of inhibition; type: cell-based; design: key: --: A dash indicates no observed zone of inhibition; hazy zone; settings: Table IV
Text: as §2

Serratia marcescens [5] = assay: standard disc-plate method, zone of inhibition; type: cell-based; design: key: --: A dash indicates no observed zone of inhibition; hazy zone; settings: Table IV
Text: as §2

[6] = test system: Trichophyton mentagrophytes; assay: standard disc-plate method, zone of inhibition; type: cell-based; design: key: --: A dash indicates no observed zone of inhibition; hazy zone; settings: Table IV
Text: as §2

[7] = test system: Penicillin Resistant Staphylococcus; assay: Gradient Plate technique, MIC; type: cell-based; settings: read-out: Minimum Inhibitory Concentration
Text: The following Table II lists the minimum inhibitory concentration (MIC) for 7-[2-(2-thienyl)acetamido]-3-chloro-3-cephem-4-carboxylic acid against penicillin resistant Staphylococcus both in the presence of and absence of serum. The MIC values were obtained by the Gradient Plate technique carried out essentially as described by Bryson and Szybalski, Science, 116, 45 (1952). […]

Aerobacter aerogenes = assay: Gradient Plate technique, MIC; type: cell-based; settings: Klebsiella aerogenes, read-out: Minimum Inhibitory Concentration
Text: (§3) The following Table II lists the minimum inhibitory concentration (MIC) for 7-[2-(2-thienyl)acetamido]-3-chloro-3-cephem-4-carboxylic acid against penicillin resistant Staphylococcus both in the presence of and absence of serum. The MIC values were obtained by the Gradient Plate technique carried out essentially as described by Bryson and Szybalski, Science, 116, 45 (1952).
(§4) In Table III, below, the MIC values for the test compound of Tables I and II against representative gram-negative organisms is presented. The data were obtained by the Gradient Plate technique.
(§5) The minimum inhibitory concentrations for 7-[2-(2-thienyl)acetamido]-3-bromo-3-cephem-4-carboxylic acid against representative gram-negative bacteria is presented in Table VI. The data were obtained by the Gradient Plate Method.
(§6) Tables VII and VIII list the minimum inhibitory concentrations of the test compound effective against representative penicillin resistant Staphylococcus strains, while […] the MIC values obtained against representative gram-negative microorganisms. The data were obtained by the Gradient Plate method.

Escherichia coli [8] = assay: Gradient Plate technique, MIC; type: cell-based; settings: read-out: Minimum Inhibitory Concentration
Text: as §3, §4, §5, §6

Klebsiella pneumoniae = assay: Gradient Plate technique, MIC; type: cell-based; settings: read-out: Minimum Inhibitory Concentration
Text: as §3, §4, §5, §6

Pseudomonas aeruginosa [9] = assay: Gradient Plate technique, MIC; type: cell-based; settings: read-out: Minimum Inhibitory Concentration
Text: as §3, §4, §5, §6

Salmonella heidelberg = assay: Gradient Plate technique, MIC; type: cell-based; settings: Salmonella enterica, read-out: Minimum Inhibitory Concentration
Text: as §3, §4, §5, §6

Serratia marcescens [10] = assay: Gradient Plate technique, MIC; type: cell-based; settings: read-out: Minimum Inhibitory Concentration
Text: as §3, §4, §5, §6

Shigella sp. = assay: Gradient Plate technique, MIC; type: cell-based; settings: read-out: Minimum Inhibitory Concentration
Text: as §3, §4, §5, §6

Electrometric titration = type: physicochemical; settings: 66% aqueous dmf; only or first pKa; read-out: pKa
Escherichia coli [11] = assay: standard disc-plate method, zone of inhibition; type: cell-based; design: key: --: A dash indicates no observed zone of inhibition; hazy zone; settings: 0.01 mg./ml.; Table IV
Text: as §1, §2

O=C(Cc1cccs1)NC1C(=O)N2C(C(=O)O)=C(Br)CS[C@H]12 (stereo partly drawn) [7-[2-(2-Thienyl)acetamido]-3-bromo-3-cephem-4-carboxylic acid]
zone of inhibition at 10 µg/mL (Bacillus subtilis; Synthetic medium): 43 mm
zone of inhibition at 10 µg/mL (Bacillus subtilis): 23 mm
zone of inhibition at 100 µg/mL (Bacillus subtilis; Synthetic medium): 50 mm
zone of inhibition at 100 µg/mL (Bacillus subtilis): 38 mm
zone of inhibition at 1000 µg/mL (Bacillus subtilis; Synthetic medium): 60 mm
zone of inhibition at 1000 µg/mL (Bacillus subtilis): 37 mm
zone of inhibition at 10 µg/mL (Escherichia coli [1]; 0.01 mg./ml., Synthetic medium, hazy zone (h)): 11 mm
zone of inhibition at 100 µg/mL (Escherichia coli [1]; Synthetic medium): 18 mm
zone of inhibition at 100 µg/mL (Escherichia coli [1]): 14 mm
zone of inhibition at 1000 µg/mL (Escherichia coli [1]; Synthetic medium): 27 mm
zone of inhibition at 1000 µg/mL (Escherichia coli [1]): 23 mm
zone of inhibition at 10 µg/mL (Sarcina lutea; 0.01 mg./ml.): 17 mm
zone of inhibition at 100 µg/mL (Sarcina lutea; 0.1 mg./ml.): 33 mm
zone of inhibition at 1000 µg/mL (Sarcina lutea; 1.0 mg./ml.): 32 mm
zone of inhibition at 10 µg/mL (Staphylococcus aureus; 0.01 mg./ml.): 22 mm
zone of inhibition at 100 µg/mL (Staphylococcus aureus; 0.1 mg./ml.): 25 mm
zone of inhibition at 1000 µg/mL (Staphylococcus aureus; 1.0 mg./ml.): 27 mm
Zone of Inhibition (diameter in mm) ([2]; 0.01 mg./ml.): --
zone of inhibition at 100 µg/mL ([2]; Pseudomonas, 0.1 mg./ml., hazy zone (h), read-out: Zone of Inhibition (diameter in mm)): 20 mm
zone of inhibition at 1000 µg/mL ([2]; Pseudomonas, 1.0 mg./ml., read-out: Zone of Inhibition (diameter in mm)): 31 mm
Zone of Inhibition (diameter in mm) (Salmonella gallinarum; 0.01 mg./ml.): --
zone of inhibition at 100 µg/mL (Salmonella gallinarum; Salmonella enterica, GALLINARUM, 0.1 mg./ml., read-out: Zone of Inhibition (diameter in mm)): 15 mm
zone of inhibition at 1000 µg/mL (Salmonella gallinarum; Salmonella enterica, GALLINARUM, 1.0 mg./ml., read-out: Zone of Inhibition (diameter in mm)): 30 mm
Zone of Inhibition (diameter in mm) (Candida albicans; 0.01 mg./ml.): --
Zone of Inhibition (diameter in mm) (Candida albicans; 0.1 mg./ml.): --
Zone of Inhibition (diameter in mm) (Candida albicans; 1.0 mg./ml.): --
Zone of Inhibition (diameter in mm) (Neurospora sp.; 0.01 mg./ml.): --
Zone of Inhibition (diameter in mm) (Neurospora sp.; 0.1 mg./ml.): --
Zone of Inhibition (diameter in mm) (Neurospora sp.; 1.0 mg./ml.): --
Zone of Inhibition (diameter in mm) (Pseudomonas aeruginosa [3]; 0.01 mg./ml.): --
Zone of Inhibition (diameter in mm) (Pseudomonas aeruginosa [3]; 0.1 mg./ml.): --
Zone of Inhibition (diameter in mm) (Pseudomonas aeruginosa [3]; 1.0 mg./ml.): --
Zone of Inhibition (diameter in mm) ([4]; 0.01 mg./ml.): --
Zone of Inhibition (diameter in mm) ([4]; 0.1 mg./ml.): --
Zone of Inhibition (diameter in mm) ([4]; 1.0 mg./ml.): --
Zone of Inhibition (diameter in mm) (Serratia marcescens [5]; 0.01 mg./ml.): --
Zone of Inhibition (diameter in mm) (Serratia marcescens [5]; 0.1 mg./ml.): --
Zone of Inhibition (diameter in mm) (Serratia marcescens [5]; 1.0 mg./ml.): --
Zone of Inhibition (diameter in mm) ([6]; 0.01 mg./ml.): --
Zone of Inhibition (diameter in mm) ([6]; 0.1 mg./ml.): --
Zone of Inhibition (diameter in mm) ([6]; 1.0 mg./ml.): --
MIC ([7]; Clinical Isolate V 32, No Serum): 0.6 µg/mL (≈ 1.49 µM)
MIC ([7]; Clinical Isolate V 41, No Serum): 0.5 µg/mL (≈ 1.24 µM)
MIC ([7]; Clinical Isolate V 84, No Serum): 0.4 µg/mL (≈ 0.992 µM)
MIC ([7]; Clinical Isolate X 1.1, No Serum): 0.3 µg/mL (≈ 0.744 µM)
MIC (Aerobacter aerogenes): 1 µg/mL (≈ 2.48 µM)
MIC (Escherichia coli [8]): 20.8 µg/mL (≈ 51.6 µM)
MIC (Klebsiella pneumoniae): 1 µg/mL (≈ 2.48 µM)
MIC (Pseudomonas aeruginosa [9]): > 200 µg/mL
MIC (Salmonella heidelberg): 1 µg/mL (≈ 2.48 µM)
MIC (Serratia marcescens [10]): > 200 µg/mL
MIC (Shigella sp.): 19.8 µg/mL (≈ 49.1 µM)
pKa (Electrometric titration): 4.4
Zone of Inhibition (diameter in mm) (Escherichia coli [11]): --
